Reference: ChEMBL document CHEMBL1123635, “Angiotensin-converting enzyme inhibitors: perhydro-1,4-thiazepin-5-one derivatives” (J Med Chem, 1987)

molecular target: T1, Angiotensin-converting enzyme (Oryctolagus cuniculus, UniProt P12822); assay: Inhibitory activity against rabbit lung Angiotensin I converting enzyme with 5 mM hippuryl-histidyl-leucine as substrate
T1 sequence (P12822 whole entry): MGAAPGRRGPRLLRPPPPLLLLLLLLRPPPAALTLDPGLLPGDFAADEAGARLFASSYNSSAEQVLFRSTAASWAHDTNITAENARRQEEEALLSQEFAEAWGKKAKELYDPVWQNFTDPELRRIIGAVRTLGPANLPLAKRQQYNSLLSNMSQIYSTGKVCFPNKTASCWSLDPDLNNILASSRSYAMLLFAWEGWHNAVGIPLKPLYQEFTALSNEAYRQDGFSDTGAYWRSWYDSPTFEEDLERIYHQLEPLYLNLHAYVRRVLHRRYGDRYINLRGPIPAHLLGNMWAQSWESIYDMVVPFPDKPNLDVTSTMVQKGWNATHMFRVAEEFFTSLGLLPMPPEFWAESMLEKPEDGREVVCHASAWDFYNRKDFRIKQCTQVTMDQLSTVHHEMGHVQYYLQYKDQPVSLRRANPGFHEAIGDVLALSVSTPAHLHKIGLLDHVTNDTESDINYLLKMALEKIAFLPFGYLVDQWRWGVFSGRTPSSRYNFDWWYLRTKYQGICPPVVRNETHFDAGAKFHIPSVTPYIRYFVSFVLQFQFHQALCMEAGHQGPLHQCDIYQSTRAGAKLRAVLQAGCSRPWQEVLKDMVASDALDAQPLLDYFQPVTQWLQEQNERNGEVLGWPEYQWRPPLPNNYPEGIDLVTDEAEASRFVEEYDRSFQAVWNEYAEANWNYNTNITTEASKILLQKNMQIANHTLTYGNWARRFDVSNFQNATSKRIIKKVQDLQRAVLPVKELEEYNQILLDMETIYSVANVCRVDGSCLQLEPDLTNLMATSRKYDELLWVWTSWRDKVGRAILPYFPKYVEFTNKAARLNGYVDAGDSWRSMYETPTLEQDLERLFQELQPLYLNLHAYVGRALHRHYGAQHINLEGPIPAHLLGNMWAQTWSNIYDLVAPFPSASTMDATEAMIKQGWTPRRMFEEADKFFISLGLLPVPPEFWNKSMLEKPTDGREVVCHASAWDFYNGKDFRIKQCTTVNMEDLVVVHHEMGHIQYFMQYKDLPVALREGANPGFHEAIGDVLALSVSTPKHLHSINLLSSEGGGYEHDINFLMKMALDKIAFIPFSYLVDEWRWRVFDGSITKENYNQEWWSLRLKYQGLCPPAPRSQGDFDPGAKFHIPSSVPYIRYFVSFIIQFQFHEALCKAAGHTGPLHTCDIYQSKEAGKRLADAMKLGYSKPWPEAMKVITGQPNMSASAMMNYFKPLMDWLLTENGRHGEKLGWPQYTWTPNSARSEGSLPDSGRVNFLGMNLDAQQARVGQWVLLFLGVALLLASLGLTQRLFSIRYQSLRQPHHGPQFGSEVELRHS

**Q.** With `O=C(O)CN1C[C@H](c2ccsc2)SC[C@H](N[C@@H](CCc2ccccc2)C(=O)O)C1=O` as the compound, how does the IC50 read?
**A.** Its IC50 is 86.9 nM.

**Q.** For `O=C(O)CN1C(=O)[C@@H](N[C@@H](CCc2ccccc2)C(=O)O)CSC[C@@H]1c1ccccc1`, which IC50 is on record?
**A.** Its IC50 is 78.2 nM.

**Q.** How did the IC50 turn out when `O=C(O)CN1C[C@@H](c2ccsc2)SC[C@H](N[C@@H](CCc2ccccc2)C(=O)O)C1=O` was run?
**A.** Its IC50 is 4.1 nM.

**Q.** Which IC50 does the source give for `O=C(O)CN1C(=O)[C@@H](N[C@@H](CCc2ccccc2)C(=O)O)CSC[C@H]1c1ccccc1` here?
**A.** Its IC50 is 3.4 nM.

**Q.** `O=C(O)CN1C(=O)[C@@H](N[C@@H](CCc2ccccc2)C(=O)O)CSCC1c1cccs1` (some centres undefined) was tested. Which IC50 did it give?
**A.** Its IC50 is 2.8 nM.

**Q.** With `O=C(O)CN1C[C@@H](c2ccccc2)SC[C@H](N[C@@H](CCc2ccccc2)C(=O)O)C1=O` as the compound, how does the IC50 read?
**A.** Its IC50 is 3.7 nM.

**Q.** Which IC50 does the source give for `O=C(O)CN1C[C@H](c2cccs2)SC[C@H](N[C@@H](CCc2ccccc2)C(=O)O)C1=O` here?
**A.** Its IC50 is 64.7 nM.

**Q.** For `O=C(O)CN1C[C@H](c2ccccc2)SC[C@H](N[C@@H](CCc2ccccc2)C(=O)O)C1=O`, which IC50 is on record?
**A.** The IC50 was 35.5 nM.

**Q.** For `O=C(O)CN1C[C@@H](c2cccs2)SC[C@H](N[C@@H](CCc2ccccc2)C(=O)O)C1=O` [TEMOCAPRILAT], which IC50 is on record?
**A.** Its IC50 is 3.6 nM.
